From US9101620B2, “Polymorph of 3-(substituteddihydroisoindolinone-2-yl)-2,6-dioxopiperidine, and pharmaceutical compositions thereof” (Nanjing Cavendish Bio-Engineering Technology Co., Ltd., priority 2009, dated 2015)

Assays:
[1] = High humidity test (room temperature, 75±5% relative humidity); assay type: physicochemical; settings: for Change of appearance and content (in words) / Moisture absorption (in words): high humidity test, summary; for Appearance / Content / Weight gain of moisture absorption: room temperature, 75±5% relative humidity
Experimental: (§1) The raw material of Polymorph 1 of 3-(4-amino-1-oxo-1,3-dihydro-2H-isoindole-2-yl)-piperidine-2,6-dione (hemihydrate) was distributed homogeneously in open petri dish with thickness of the raw material not more than 5 mm and put into thermostatic and humidostatic incubator at room temperature (about 25° C.) and 75±5% relative humidity. Sample was tested at the 5th and 10th day respectively and the results were contrasted with that of the Day 0. Results were listed in Tab. 4. After high humidity test of 75±5% relative humidity for 10 days, the X-ray powder diffraction pattern was shown in FIG. 9; DSC diagram was in FIG. 10-1; TGA diagram was in FIG. 10-2.
as §1, with “Polymorph II” for “Polymorph 1”, “3-(4-amino-1-oxo-1,3-dihydro-2H-isoindole-2-yl)-piperidine-2,6-dione” for “3-(4-amino-1-oxo-1,3-dihydro-2H-isoindole-2-yl)-piperidine-2,6-dione (hemihydrate)”, “Tab. 9.” for “Tab. 4.”, “FIG. 20;” for “FIG. 9;”, “FIG. 21-1;” for “FIG. 10-1;”, “FIG. 21-2.” for “FIG. 10-2.”
as §1, with “Polymorph III” for “Polymorph 1”, “3-(4-amino-1-oxo-1,3-dihydro-2H-isoindole-2-yl)-piperidine-2,6-dione” for “3-(4-amino-1-oxo-1,3-dihydro-2H-isoindole-2-yl)-piperidine-2,6-dione (hemihydrate)”, “Tab. 14.” for “Tab. 4.”, “FIG. 31;” for “FIG. 9;”, “FIG. 32-1;” for “FIG. 10-1;”, “FIG. 32-2.” for “FIG. 10-2.”

[2] = Accelerated test (40° C., 75% relative humidity); assay type: physicochemical; settings: 40° C. and 75% relative humidity
From the text: The conditions and methods of related substance test involved in this invention were in accordance with HPLC (Appendix VD of Chinese Pharmacopoeia Edition 2005).
Chromatographic conditions and system applicability: octadecylsilane bonded silica as the filler; 0.01 mol/L of potassium dihydrogen phosphate (adjusted to pH 3.5 by phosphoric acid)-methanol-acetonitrile (80:15:5) as the mobile phase; detection wavelength was 240 nm; the number of theoretical plates should be not less than 2000, calculated according to the peak of 3-(4-amino-1-oxo-1,3-dihydro-2H-isoindole-2-yl)-piperidine-2,6-dione. The resolution of the peak of 3-(4-amino-1-oxo-1,3-dihydro-2H-isoindole-2-yl)-piperidine-2,6-dione from the peaks of adjacent impurities should meet requirements.
(§2) The raw material of Polymorph I of 3-(4-amino-1-oxo-1,3-dihydro-2H-isoindole-2-yl)-piperidine-2,6-dione (hemihydrate) was hermetically packed in plastic bags of polyethylene film and put in thermostatic and humidostatic incubator at 40±2° C. and 75±5% relative humidity for six months. Sample was tested at the end of the 1st, 2nd, 3rd and 6th month respectively and the results were contrasted with that of the zeroth month. Results were listed in Tab. 5. After accelerated test at 40° C. for six months, the X-ray powder diffraction pattern was shown in FIG. 11; DSC diagram was in FIG. 12-1; TGA diagram was in FIG. 12-2
as §2, with “Polymorph II” for “Polymorph I”, “3-(4-amino-1-oxo-1,3-dihydro-2H-isoindole-2-yl)-piperidine-2,6-dione” for “3-(4-amino-1-oxo-1,3-dihydro-2H-isoindole-2-yl)-piperidine-2,6-dione (hemihydrate)”, “Tab. 10.” for “Tab. 5.”, “FIG. 22;” for “FIG. 11;”, “FIG. 23-1;” for “FIG. 12-1;”, “FIG. 23-2” for “FIG. 12-2”
as §2, with “Polymorph III” for “Polymorph I”, “3-(4-amino-1-oxo-1,3-dihydro-2H-isoindole-2-yl)-piperidine-2,6-dione” for “3-(4-amino-1-oxo-1,3-dihydro-2H-isoindole-2-yl)-piperidine-2,6-dione (hemihydrate)”, “Tab. 15.” for “Tab. 5.”, “FIG. 33;” for “FIG. 11;”, “FIG. 34-1;” for “FIG. 12-1;”, “FIG. 34-2” for “FIG. 12-2”

| SMILES | Change of appearance and content (in words) [1] | Moisture absorption (in words) [1] | Appearance ([1]; 0 days) | Content ([1]; 0 days) [%] | Appearance ([1]; 5 days) | Content ([1]; 5 days) [%] | Weight gain of moisture absorption ([1]; 5 days) [%] | Appearance ([1]; 10 days) | Content ([1]; 10 days) [%] | Weight gain of moisture absorption ([1]; 10 days) [%] | Appearance ([2]; 0 months) | Content ([2]; 0 months) [%] | Related substance ([2]; 0 months) [%] | Appearance ([2]; 1 month) | Content ([2]; 1 month) [%] | Related substance ([2]; 1 month) [%] | Appearance ([2]; 2 months) | Content ([2]; 2 months) [%] | Related substance ([2]; 2 months) [%] | Appearance ([2]; 3 months) | also measured |
| --- | --- | --- | --- | --- | --- | --- | --- | --- | --- | --- | --- | --- | --- | --- | --- | --- | --- | --- | --- | --- | --- |
| Nc1cccc2c1CN(C1CCC(=O)NC1=O)C2=O (single isomer, unassigned) [Polymorph II, 3-(4-amino-1-oxo-1,3-dihydro-2H-isoindole-2-yl)-piperidine-2,6-dione] | few obvious change | lower moisture absorption | off-white powder | 99.89 | off-white powder | 99.87 | 1.33 | off-white powder | 99.87 | 2.15 | off-white powder | 99.89 | 0.09 | off-white powder | 99.85 | 0.09 | off-white powder | 99.77 | 0.10 | off-white powder | Content ([2]; 3 months): 99.72%; Related substance ([2]; 3 months): 0.10%; Appearance ([2]; 6 months): off-white powder; Content ([2]; 6 months): 99.68%; Related substance ([2]; 6 months): 0.12% |
| Nc1cccc2c1CN(C1CCC(=O)NC1=O)C2=O (single isomer, unassigned) [Polymorph III, 3-(4-amino-1-oxo-1,3-dihydro-2H-isoindole-2-yl)-piperidine-2,6-dione] | few obvious change | lower moisture absorption | off-white powder | 99.86 | off-white powder | 99.83 | 1.25 | off-white powder | 99.82 | 1.37 | off-white powder | 99.86 | 0.07 | off-white powder | 99.81 | 0.07 | off-white powder | 99.76 | 0.07 | off-white powder | Content ([2]; 3 months): 99.71%; Related substance ([2]; 3 months): 0.08%; Appearance ([2]; 6 months): off-white powder; Content ([2]; 6 months): 99.62%; Related substance ([2]; 6 months): 0.08% |
| Nc1cccc2c1CN(C1CCC(=O)NC1=O)C2=O (single isomer, unassigned) [Polymorph I, 3-(4-amino-1-oxo-1,3-dihydro-2H-isoindole-2-yl)-piperidine-2,6-dione] | few obvious change | very slight moisture absorption | off-white powder | 99.87 | off-white powder | 99.85 | 0.65 | off-white powder | 99.85 | 0.66 | Off-white powder | 99.87 | 0.05 | Off-white powder | 99.85 | 0.05 | Off-white powder | 99.81 | 0.05 | Off-white powder | Content ([2]; 3 months): 99.78%; Related substance ([2]; 3 months): 0.06%; Appearance ([2]; 6 months): Off-white powder; Content ([2]; 6 months): 99.75%; Related substance ([2]; 6 months): 0.07% |
